Experimental data from paper PMC10531311, “Anti-Inflammatory Activities of 8-Benzylaminoxanthines Showing High Adenosine A2A and Dual A1/A2A Receptor Affinity” (International Journal of Molecular Sciences, 2023).
Entries after “also recorded” stand apart in the source; their conditions may differ. Read-outs that look alike come from different tables or passages of the source.

What was measured:
[1] = test system: BV-2 cells treated with LPS; experiment: Griess assay, NO production; conditions: BV-2, LPS 1 μg/mL 24 h; at the lowest concentrations (19: 100 nM; 22: 100 and 200 nM)
Description: To assess the ability of compounds to inhibit NO production, the Griess assay was applied. This is a colorimetric assay to measure the levels of nitrite (NO2^−), which is one of the primary and stable metabolites of NO. The anti-inflammatory activity of compounds was examined in BV-2 cells treated with LPS as previously described [19]. Briefly, BV-2 cells were first pre-treated with increasing concentrations of tested compounds for 1 h, followed by LPS (1 μg/mL) stimulation for 24 h. Together with the Griess assay, the 3-(4,5-dimethylthiazol-2-yl)-5-(3-carboxymethoxyphenyl)-2-(4-sulfophenyl)-2H-tetrazolium (MTS) assay was performed to ensure that the decrease in NO level was not an effect of toxicity.
Griess reagent (Sigma-Aldrich, Saint Louis, MO, USA, G4410) was freshly prepared by dissolving 1 g in ultrapure water and mixing by inversion for about 4 min under protection from light. […] The plate was incubated for 15 min at room temperature and the absorbance was read at 540 nm using the EnSpire microplate reader (PerkinElmer, Waltham, MA, USA). Data were analyzed by direct comparison based on the average absorbance of LPS treatment, compound treatment or co-treatment with LPS, performed by normalizing treated cells (compound alone or co-treatment with LPS) to LPS-treated cells set at 100%.

[2] = PAMPA blood brain barrier permeability; assay type: in vitro ADME
Description: The ability of compounds, especially those intended to act in the CNS, to penetrate the blood-brain barrier (BBB) is an important property to consider in the initial stages of drug candidate screening. The PAMPA assay is a commonly used test to assess the passive permeation of the BBB [17]. In our study, caffeine was used as a highly permeable compound. […] After 5 h of incubation at room temperature, the results were analyzed by LC-MS, and the permeability coefficients (Pe) were calculated.
For permeability evaluation, a PAMPA Gentest™ pre-coated […] system, provided by Corning (Tewksbury, MA, USA), was used. The precise procedure was previously described. The permeability coefficient Pe was calculated based on the given equations. Concentrations of the tested compounds in the apical and basolateral wells were determined by LC/MS analysis using an internal standard.

[3] = test system: BV-2 cells; experiment: Phagocytic activity, IncuCyte pHrodo; assay type: cell-based; conditions: 1 µM; BV-2, LPS 1 μg/mL; apoptotic Jurkat target cells
Description: For the evaluation of phagocytic activity, compound 22 (MZ1490) was chosen as the most promising one on the basis of the results from the Griess assay. This compound was tested at a concentration of 1 µM, and phagocytosis was monitored in real time using an IncuCyte® pHrodo® Red Cell Labeling Kit (catalog no. 4766, Sartorius, Göttingen, Germany). […] It is interesting to note that the phagocytic activity exerted by untreated BV-2 cells is also related to the serum concentration. A healthy CNS maintains the BBB, and microglia are often highly ramified surveillance microglia without enhanced phagocytosis. […]
Phagocytosis was monitored in real time using the IncuCyte® pHrodo® Red Cell Labeling Kit. The principle of this test is based on the ability of the pHrodo to emit fluorescence in an acidic environment, which is precisely the environment inside the phagosome. If effector cells engulf labeled target cells and these enter the acidic phagosome, a substantial increase in fluorescence is observed. In this way, we can quantify phagocytosis. […] After this time, the labeled Jurkat apoptotic cells were added to the BV-2 cells at a density of 100,000 cells/well and the cells were monitored in an IncuCyte Live-Cell Analysis System. Repeat scanning to record phase and fluorescence images was carried out every 1 h, for up to 22 h. […]

[4] = target: T1, CYP2D6 (Homo sapiens, UniProt P10635); experiment: Drug-drug interactions, CYP2D6 P450-Glo; assay type: in vitro ADME; conditions: 10 µM
T1 construct: purchased Promega (Madison, WI, USA)
T1 sequence (P10635 whole entry): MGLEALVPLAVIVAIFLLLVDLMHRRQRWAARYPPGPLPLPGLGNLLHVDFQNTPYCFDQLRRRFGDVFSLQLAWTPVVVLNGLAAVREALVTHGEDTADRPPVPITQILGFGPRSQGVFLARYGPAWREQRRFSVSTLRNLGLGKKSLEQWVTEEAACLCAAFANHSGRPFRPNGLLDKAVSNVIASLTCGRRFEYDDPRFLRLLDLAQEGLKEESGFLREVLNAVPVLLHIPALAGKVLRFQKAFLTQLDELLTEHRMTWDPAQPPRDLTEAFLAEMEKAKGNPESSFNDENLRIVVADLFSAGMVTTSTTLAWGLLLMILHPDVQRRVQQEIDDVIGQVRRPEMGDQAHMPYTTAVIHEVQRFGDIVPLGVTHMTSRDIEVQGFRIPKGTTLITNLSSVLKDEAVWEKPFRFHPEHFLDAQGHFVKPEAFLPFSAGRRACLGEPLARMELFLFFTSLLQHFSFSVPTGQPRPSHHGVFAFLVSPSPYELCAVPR
Description: To predict potential drug-drug interactions (DDI) effects on three of the most relevant cytochrome P450 (CYP), isoforms CYP3A4, CYP2D6 and CYP2C9 were investigated at a concentration of 10 µM. The results were compared with the effects of 1 µM of the selective inhibitors ketoconazole (CYP3A4), quinidine (CYP2D6) and sulfaphenazole (CYP2C9).
The influence of the tested compounds on recombinant human cytochromes was determined with the use of CYP3A4, CYP2D6 and CYP2C9 P450-Glo™ kits and protocols provided by Promega (Madison, WI, USA). Compounds were tested at a concentration of 10 μM. Reference inhibitors: Ketoconazole (CYP3A4), quinidine (CYP2D6) and sulfaphenazole (CYP2C9) were tested at 1 μM. The luminescent signals were measured using a microplate reader EnSpire PerkinElmer (Waltham, MA, USA).

[5] = 100 μM in PBS, 5 h, room temperature, triplicate
[6] = 100 μM in PBS, 5 h, room temperature, triplicate, read-out: Pe ± SD

Row | Drug Retention [2] [%] | Pe ± SD [2, 5] | Papp at 5 h, 100 μM [2, 6] [×10⁻⁶ cm/s] | Papp at 5 h, 100 μM ([2]; read-out: Permeable) [×10⁻⁶ cm/s] | SMILES | anti-inflammatory activity in Griess assay (in words) [1] | effect on phagocytosis (in words) [3] | effect on CYP2D6 activity (in words) [4]
1 | 51.78 | greater than 1.5 10^−6 cm/s | 3.13 ± 0.82 | ≥ 1.5 | C#CCn1c(=O)c2c(nc(NCc3ccccc3Cl)n2C)n(C)c1=O [compound 19, 8-((2-Chlorobenzyl)amino)-3,7-dimethyl-1-(prop-2-yn-1-yl)-3,7-dihydro-1H-purine-2,6-dione] | moderate anti-inflammatory activity | – | –
2 | 68.62 | 0.37 10^−6 cm/s | 0.37 ± 0.01 | ≤ 1.5 | C#CCn1c(=O)c2c(nc(NCc3c(F)cccc3Cl)n2C)n(C)c1=O [compound 22, 8-((2-Chloro-6-fluorobenzyl)amino)-3,7-dimethyl-1-(prop-2-yn-1-yl)-3,7-dihydro-1H-purine-2,6-dione] | moderate anti-inflammatory activity | protects microglia from LPS-induced inflammation and, therefore, also from phagocytosis; also recorded: protected from phagocytosis | –
3 | 93.30 | 0.89 10^−6 cm/s | 0.89 ± 0.71 | ≤ 1.5 | C#CCn1c(=O)c2c(nc(NCc3cccc(Br)c3)n2C)n(C)c1=O [compound 24, 8-((3-Bromobenzyl)amino)-3,7-dimethyl-1-(prop-2-yn-1-yl)-3,7-dihydro-1H-purine-2,6-dione] | – | – | slight, statistically significant inhibition
